Experimental data taken from patent US11591352B2, “Method for treatment of senescence-related disorders” (SPRINGTIDE VENTURES S.R.O., priority 2016, dated 2023).
Read-outs that look alike come from different tables or passages of the source.

Assays:
[1] = test system: control retinal pigment epithelial cells (RPE); test: Viability (annexin V/Hoechst) of control RPE cells; type: cell-based; conditions: for % of Annexin V-/Hoechst-cells: ctrl
Procedure: (§3) The effect of compounds 7, 8, 10, 15 on primary senescent cells (retinal pigment epithelial cells (RPE) treated for 8 days with 100 μM 5-bromo-2-deoxyuridine (BrdU)) was tested.

[2] = test system: senescent retinal pigment epithelial cells (RPE) treated with BrdU; test: Viability (annexin V/Hoechst) of senescent RPE cells; conditions: for % of Annexin V-/Hoechst-cells: BrdU; for selectivity of cytotoxicity for senescent versus control cells (in words): senescent (BrdU) vs control RPE cells
Procedure: as §3

[3] = test system: B-gal positive (senescent) cells in lungs; test: B-gal staining of lungs of young and naturally old FVB mice treated with compound 8; type: in vivo; conditions: for % of B-gal positive cells: 1 μg/g every week for 4 weeks
Procedure: We first analyzed the presence of senescent cells (using B-galactosidase (B-gal) staining) in organs in these two groups. From all tested organs (lungs, brain, white adipose tissue and stomach), we detected the biggest difference in presence of B-gal-positive cells in lungs (not shown). In the next step we treated the mice (6×19 month old mice+6×2 month old mice) with 1 dose of compound 8 (1 μg of compound 8/1 g mouse) every week for a period of 4 weeks. Mice (5×19 month old mice+6×2 month old mice) treated only with a corn oil without compound 8 were used as a control. After 4 weeks we removed lungs and detected percentage of B-gal positive cells in the tissues.

[4] = test system: p16, p21 and plasminogen activator inhibitor (PAI) mRNA; test: qRT PCR of senescent markers in organs of young and old FVB mice; type: in vivo
[5] = test system: BxPC-3 (senescent); test: Viability (Annexin V/Hoechst) of senescent pancreatic cells; type: cell-based; conditions: 48 h
Procedure: (§1) We tested the effect of compound 8 on cultured senescent pancreatic cells. We used three pancreatic cell lines (PANC-1, PaTu and BxPC-3) exposed to 100 μM BrdU for 6 days to induce senescence. These senescent cells were treated with different doses of compound 8 for 48 h and their viability was assessed. […] RPE cells, as the most sensitive tested cells, were used as a control to establish the concentration at which compound 8 is not toxic for non-senescent cells.

[6] = test system: PANC-1 (senescent); test: as above; type: cell-based; conditions: 48 h
Procedure: as §1

[7] = test system: PaTu (senescent); test: as above; type: cell-based; conditions: 48 h
Procedure: as §1

[8] = test system: RPE (control); test: Viability (Annexin V/Hoechst) of non-senescent control cells; type: cell-based; conditions: 48 h
Procedure: as §1

[9] = test system: p16, p21 and PAI mRNA in 4T1 cell-derived tumours; test: qRT PCR of senescent markers in 4T1 cell-derived tumours; type: in vivo, Balb-c mice
[10] = test system: p16, p21 and PAI mRNA in FVB/cneu spontaneous tumours; test: qRT PCR of senescent markers in spontaneous tumours; type: in vivo, FVB mice
[11] = test system: p16 and p21 mRNA in PDX (triple-negative breast tumour); test: qRT PCR of senescence markers in patient-derived xenografts; type: in vivo, NOD scid gamma mice
Procedure: Importantly, we repeated this experiment using patient-derived xenografts (PDXs; triple-negative breast tumour) transplanted into NOD scid gamma mice and treated with compound 8 (0.375 mg of compound 8/mouse, twice per week for a period of 2-3 weeks).

[12] = test system: RPE cells; test: Lactate production in RPE cells; type: cell-based
Source text: (§2) Adenin nucleotid translocase 2 (ANT2) is a protein important for translocation of ATP from cytoplasm to mitochondria unlike two other members of ANT family, ANT1 and ANT3, participating in classical transfer of ADP into mitochondria via complex V during mitochondrial respiration. ANT2 plays a key role in maintenance of mitochondrial potential and in preserving intact mitochondria, especially in tumour cells. […] All these experiments show a key role of ANT2 in compound 8 resistance.

[13] = test system: RPE cells (siNC / siANT2); test: Viability of RPE cells after ANT2 downregulation by siRNA; type: cell-based
Source text: as §2

[14] = test system: RPE cells with inducible ANT2; test: Viability of RPE cells transfected with inducible ANT2; type: cell-based
Source text: as §2

[15] = test system: senescent retinal pigment epithelial cells (RPE) treated with BrdU
Procedure: as §3

[16] = BALBe/4T1 tumors, treated, 0.2 mg/mouse twice per week for 2-3 weeks
[17] = FVB/cneu tumors, treated, 0.2 mg/mouse twice per week for 2-3 weeks
[18] = PDX tumors, treated, 0.375 mg/mouse twice per week for 2-3 weeks

## CC/C(=C(\c1ccccc1)c1ccc(OCCN(C)C)cc1)c1ccccc1 [Tamoxifen]
[1]; 1 μM
  % of Annexin V-/Hoechst-cells: 97.0%
[1]; 2.5 μM
  % of Annexin V-/Hoechst-cells: 96.7%
[1]; 5 μM
  % of Annexin V-/Hoechst-cells: 94.7%
[1]; 10 μM
  % of Annexin V-/Hoechst-cells: 55.8%
[1]; 20 μM
  % of Annexin V-/Hoechst-cells: 2.15%
[2]; 10 μM, both senescent and control cells
  decrease of viability (in words): by about half
[2]; 20 μM, both senescent and control cells
  cytotoxicity (in words): highly cytotoxic
[2]; 1 μM
  % of Annexin V-/Hoechst-cells: 73.8%
[2]; 2.5 μM
  % of Annexin V-/Hoechst-cells: 73.0%
[2]; 5 μM
  % of Annexin V-/Hoechst-cells: 70.1%
[2]; 10 μM
  % of Annexin V-/Hoechst-cells: 33.8%
[2]; 20 μM
  % of Annexin V-/Hoechst-cells: 4.3%
[2]
  selectivity of cytotoxicity for senescent versus control cells (in words): does not at any tested concentration have a significantly higher toxicity for senescent cells than for control cells
[2]; up to 5 μM, senescent and control cells
  cytotoxicity (in words): does not show cytotoxicity

## CN(C)CCOc1ccc(/C(=C(/CCCCCCCCCCBr)c2ccccc2)c2ccccc2)cc1 [compound 7]
[1]; 0.05 μM
  % of Annexin V-/Hoechst-cells: 94.6%
[1]; 0.1 μM
  % of Annexin V-/Hoechst-cells: 95.1%
[1]; 0.5 μM
  % of Annexin V-/Hoechst-cells: 91.4%
[2]; 0.05 μM
  % of Annexin V-/Hoechst-cells: 80.5%
[2]; 0.1 μM
  % of Annexin V-/Hoechst-cells: 78.3%
[2]; 0.5 μM
  % of Annexin V-/Hoechst-cells: 55.3%
[2]
  selectivity of cytotoxicity for senescent versus control cells (in words): selectively more cytotoxic to senescent cells

## CN(C)CCOc1ccc(/C(=C(/CCCCCCCCCC[P+](c2ccccc2)(c2ccccc2)c2ccccc2)c2ccccc2)c2ccccc2)cc1.[Br-] [compound 8]
[3]; 2 month old mice
  % of B-gal positive cells: 0.3%
[3]; 19 month old mice
  % of B-gal positive cells: 0.7%
[3]; old mice
  number of B-gal-positive cells after treatment (in words): decrease of their number
[4]; kidney, 2 m treated
  PAI mRNA fold change: 0.47 (+/− 0.09) fold change
  p16 mRNA fold change: 0.02 (+/− 0.01) fold change
  p21 mRNA fold change: 0.25 (+/− 0.05) fold change
[4]; kidney, 19 m treated
  PAI mRNA fold change: 0.79 (+/− 0.17) fold change
  p16 mRNA fold change: 0.79 (+/− 0.31) fold change
  p21 mRNA fold change: 0.34 (+/− 0.11) fold change
[4]; lungs, 2 m treated
  PAI mRNA fold change: 0.69 (+/− 0.12) fold change
  p16 mRNA fold change: 0.63 (+/− 0.07) fold change
  p21 mRNA fold change: 0.30 (+/− 0.06) fold change
[4]; lungs, 19 m treated
  PAI mRNA fold change: 0.93 (+/− 0.22) fold change
  p16 mRNA fold change: 0.74 (+/− 0.12) fold change
  p21 mRNA fold change: 0.39 (+/− 0.03) fold change
[4]; old mouse tissue
  level of senescent markers p16, p21, PAI mRNA after treatment (in words): decreased almost to control levels
[5]; 0.1 μM
  % of AnnexinV-/Hoechst-cells: 47.7 (+/− 0.49) %
[5]; 0.5 μM
  % of AnnexinV-/Hoechst-cells: 35.9 (+/− 6.22) %
[5]; 1 μM
  % of AnnexinV-/Hoechst-cells: 4.8 (+/− 0.83) %
[5]; 2.5 μM
  % of AnnexinV-/Hoechst-cells: 3.9 (+/− 1.69) %
[6]; 0.1 μM
  % of AnnexinV-/Hoechst-cells: 92.3 (+/− 0.78) %
[6]; 0.5 μM
  % of AnnexinV-/Hoechst-cells: 92.7 (+/− 1.27) %
[6]; 1 μM
  % of AnnexinV-/Hoechst-cells: 5.0 (+/− 1.97) %
[6]; 2.5 μM
  % of AnnexinV-/Hoechst-cells: 3.1 (+/− 0.68) %
[7]; 0.1 μM
  % of AnnexinV-/Hoechst-cells: 24.7 (+/− 3.25) %
[7]; 0.5 μM
  % of AnnexinV-/Hoechst-cells: 10.3 (+/− 0.97) %
[7]; 1 μM
  % of AnnexinV-/Hoechst-cells: 3.6 (+/− 3.24) %
[7]; 2.5 μM
  % of AnnexinV-/Hoechst-cells: 2.4 (+/− 1.21) %
[8]; 0.1 μM
  % of AnnexinV-/Hoechst-cells: 98.9 (+/− 0.14) %
[8]; 0.5 μM
  % of AnnexinV-/Hoechst-cells: 98.8 (+/− 0.21) %
[8]; 1 μM
  % of AnnexinV-/Hoechst-cells: 98.3 (+/− 0.14) %
[8]; 2.5 μM
  % of AnnexinV-/Hoechst-cells: 99.1 (+/− 0.35) %
[9]; [16]
  PAI mRNA fold change: 0.59 (+/− 0.22) fold change
  p16 mRNA fold change: 0.20 (+/− 0.08) fold change
  p21 mRNA fold change: 0.77 (+/− 0.18) fold change
[9]; Balb-c mice with 4T1 tumours, 0.2 mg/mouse twice per week, 2-3 weeks
  increase of senescent markers p16, p21 and PAI on the mRNA level (in words): did not observe any increase
[10]; FVB mice with spontaneous tumours, 0.2 mg/mouse twice per week, 2-3 weeks
  increase of senescent markers p16, p21 and PAI on the mRNA level (in words): did not observe any increase
[10]; [17]
  PAI mRNA fold change: 1.93 (+/− 1.19) fold change
  p16 mRNA fold change: 0.39 (+/− 0.24) fold change
  p21 mRNA fold change: 1.94 (+/− 1.43) fold change
[11]; PDX in NOD scid gamma mice, 0.375 mg/mouse twice per week, 2-3 weeks
  increase of senescence markers (in words): no increase
[11]; [18]
  p2l mRNA fold change: 0.72 (+/− 0.84) fold change
  p16 mRNA fold change: 1.34 (+/− 1.25) fold change
[12]; RPE BrdU (senescent) treated
  Lactate production (fold induction): 8.2 fold induction
[12]; RPE ctrl treated
  Lactate production (fold induction): 1.6 fold induction
[13]; RPE siANT2 treated
  % of AnnexinV-/Hoechst-cells: 20.7%
[13]; RPE siNC treated
  % of AnnexinV-/Hoechst-cells: 90.5%
[13]; RPE, ANT2 siRNA
  death of control cells with downregulated ANT2 after treatment (in words): increased death of these cells
[14]; RPE BrdU + ANT2
  resistance of senescent cells with induced ANT2 towards treatment (in words): increased resistance
[14]; RPE BrdU + ANT2 treated
  % of AnnexinV-/Hoechst-cells: 53.8%
[14]; RPE BrdU treated
  % of AnnexinV-/Hoechst-cells: 6.8%
[14]; RPE ctrl + ANT2 treated
  % of AnnexinV-/Hoechst-cells: 95.2%
[14]; RPE ctrl treated
  % of AnnexinV-/Hoechst-cells: 95.0%
[1]; control RPE
  effect on control cells (in words): without any effect on control cells
[1]; 1 μM
  % of Annexin V-/Hoechst-cells: 93.0%
[1]; 2.5 μM
  % of Annexin V-/Hoechst-cells: 90.3%
[1]; 5 μM
  % of Annexin V-/Hoechst-cells: 3.1%
[15]
  selectivity of cytotoxicity for senescent versus control cells (in words): selectively more cytotoxic to senescent cells
[2]; 1 μM
  % of Annexin V-/Hoechst-cells: 67.0%
[2]; 2.5 μM
  % of Annexin V-/Hoechst-cells: 13.9%
[2]; 5 μM
  % of Annexin V-/Hoechst-cells: 0.8%
[2]; RPE, 100 μM BrdU for 8 days
  effect on elimination of senescent cells (in words): specific effect on elimination of senescent cells
